Usually IC50 stands for the midpoint of a concentration-inhibition curve.

The test concerns the target T1, recombinant human GR (Homo sapiens, UniProt P04150).
T1 construct: purchased Panvera/Invitrogen P2812 (kit P2893)
T1 sequence (P04150 1-777): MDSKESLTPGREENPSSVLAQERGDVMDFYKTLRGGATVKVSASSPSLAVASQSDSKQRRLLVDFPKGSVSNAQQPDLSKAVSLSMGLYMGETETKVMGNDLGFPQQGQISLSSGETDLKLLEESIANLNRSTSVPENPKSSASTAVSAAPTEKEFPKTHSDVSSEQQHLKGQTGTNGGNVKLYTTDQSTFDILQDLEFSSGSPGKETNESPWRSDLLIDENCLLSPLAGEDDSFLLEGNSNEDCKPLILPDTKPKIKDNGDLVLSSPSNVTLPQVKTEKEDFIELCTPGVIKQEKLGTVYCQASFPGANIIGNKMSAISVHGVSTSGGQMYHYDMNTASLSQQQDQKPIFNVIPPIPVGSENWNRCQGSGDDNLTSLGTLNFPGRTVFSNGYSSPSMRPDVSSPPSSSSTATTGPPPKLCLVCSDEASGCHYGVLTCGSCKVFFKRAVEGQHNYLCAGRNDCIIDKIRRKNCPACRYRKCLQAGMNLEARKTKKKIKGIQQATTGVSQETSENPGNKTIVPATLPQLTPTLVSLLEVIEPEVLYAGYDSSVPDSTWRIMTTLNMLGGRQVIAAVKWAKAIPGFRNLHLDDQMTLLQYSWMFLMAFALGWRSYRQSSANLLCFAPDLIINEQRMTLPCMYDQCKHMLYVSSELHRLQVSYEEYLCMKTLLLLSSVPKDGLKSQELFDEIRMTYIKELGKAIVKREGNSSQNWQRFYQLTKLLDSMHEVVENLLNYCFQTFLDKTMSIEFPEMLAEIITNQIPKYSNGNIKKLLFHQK
Kind of test: Human Glucocorticoid Receptor (GR) Assay, fluorescence polarization. The format is binding. Conditions: GS Red tracer, incubated 2 h at r.t., XLfit model 205, read-out: GRhuFL_FP_v2 Mean IC50. The method, boiled down: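 After 2 h dark incubation at r.t., polarization reported displacement of the GS Red tracer from recombinant GR, in buffer with phosphate, molybdate, EDTA, DTT and Stabilizing Peptide. Controls: dexamethasone (100%) and DMSO (0%).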
As to `C[C@H](NC(=O)C(F)(F)F)[C@H](Oc1ccc2c(cnn2-c2ccc(F)cc2)c1)c1ccc2c(c1)OCO2` [Example 166, N-[(1R,2S)-1-benzo[1,3]dioxol-5-yl-1-[1-(4-fluorophenyl)indazol-5-yl]oxy-propan-2-yl]-2,2,2-trifluoro-acetamide], the IC50 was found to be 6.9 nM.

For `COc1cccc([C@@H](Oc2ccc3c(cnn3-c3ccc(F)cc3)c2)[C@H](C)NC(=O)C(=O)NC(C)(C)C)c1` [Example 82, N-[(1R,2S)-1-[1-(4-Fluorophenyl)indazol-5-yl]oxy-1-(3-methoxyphenyl)propan-2-yl]-N′-tert-butyl-oxamide], the IC50 was 5.3 nM.

As to `COc1cccc([C@@H](Oc2ccc3c(cnn3-c3ccc(Cl)cc3)c2)[C@H](C)NC(=O)C(C)(F)F)c1` [Example 128, N-((1R,2S)-1-(1-(4-chlorophenyl)-1H-indazol-5-yloxy)-1-(3-methoxyphenyl)propan-2-yl)-2,2-difluoropropanamide], the IC50 worked out at 3.9 nM.

With `C[C@H](NC(=O)C(C)(C)C)[C@@H](Cc1ccccc1)Oc1ccc2c(cnn2-c2ccc(F)cc2)c1` [Example 73, N-[(2S,3R)-3-[1-(4-Fluorophenyl)indazol-5-yl]oxy-4-phenyl-butan-2-yl]-2,2-dimethyl-propanamide], the IC50 was determined as 5.1 nM.

On to `Cc1ccc([C@@H](Oc2ccc3c(cnn3-c3ccc(F)cc3)c2)[C@H](C)NC(=O)C(C)(C)CO)cc1F` [Example 252, N-[(1R,2S)-1-(3-fluoro-4-methyl-phenyl)-1-[1-(4-fluorophenyl)indazol-5-yl]oxy-propan-2-yl]-3-hydroxy-2,2-dimethyl-propanamide], for which the IC50 was 4.7 nM.

In the case of `CC(C)(C)C(=O)NC(C(Oc1ccc2c(cnn2-c2ccc(F)cc2)c1)c1ccccc1)C(F)(F)F` (single isomer, unassigned) [Example 147D1E2, N-(1,1,1-trifluoro-3-(1-(4-fluorophenyl)-1H-indazol-5-yloxy)-3-phenylpropan-2-yl)pivalamide], the IC50 was 24 nM.

Regarding `C[C@H](NC(=O)C1(C)CC1)[C@H](Oc1ccc2c(cnn2-c2ccc(F)cc2)c1)c1ccc(F)c(F)c1` [Example 212, N-[(1R,2S)-1-(3,4-difluorophenyl)-1-[1-(4-fluorophenyl)indazol-5-yl]oxy-propan-2-yl]-1-methyl-cyclopropane-1-carboxamide], the IC50 turned out to be 5.2 nM.

Regarding `Cc1ccc([C@@H](Oc2ccc3c(cnn3-c3ccc(F)cc3)c2)[C@H](C)NC(=O)C2(C)CC2)c(C)c1` [Example 216, N-[(1R,2S)-1-(2,4-dimethylphenyl)-1-[1-(4-fluorophenyl)indazol-5-yl]oxy-propan-2-yl]-1-methyl-cyclopropane-1-carboxamide], the IC50 was 4.7 nM.

In the case of `Cc1ccc(F)cc1[C@@H](Oc1ccc2c(cnn2-c2ccc(F)cc2)c1)[C@H](C)NC(=O)C(C)(C)F` [Example 249, 2-fluoro-N-[(1R,2S)-1-(5-fluoro-2-methyl-phenyl)-1-[1-(4-fluorophenyl)indazol-5-yl]oxy-propan-2-yl]-2-methyl-propanamide], the IC50 is 5 nM.

As to `C[C@H](NC(=O)C(F)(F)F)[C@H](Oc1ccc2c(cnn2-c2ccc(CN(C)C)cc2)c1)c1ccccc1` [Example 143, N-((1R,2S)-1-(1-(4-((dimethylamino)methyl)phenyl)-1H-indazol-5-yloxy)-1-phenylpropan-2-yl)-2,2,2-trifluoroacetamide], the IC50 worked out at 23 nM.

As to `COCc1ccc(C(=O)N[C@@H](C)[C@H](Oc2ccc3c(cnn3-c3ccc(F)cc3)c2)c2cccc(OC)c2)s1` [Example 299, N-[(1R,2S)-1-[1-(4-fluorophenyl)indazol-5-yl]oxy-1-(3-methoxyphenyl)propan-2-yl]-5-(methoxymethyl)thiophene-2-carboxamide], the half-maximal inhibitory concentration (IC50) stood at 3.1 nM.

`Cc1ccc(F)cc1[C@@H](Oc1ccc2c(cnn2-c2ccc(F)cc2)c1)[C@H](C)NC(=O)C(C)(F)F` [Example 234, 2,2-difluoro-N-[(1R,2S)-1-(5-fluoro-2-methyl-phenyl)-1-[1-(4-fluorophenyl)indazol-5-yl]oxy-propan-2-yl]propanamide]: the IC50 was 6.4 nM.

Regarding `COc1ccccc1[C@@H](Oc1ccc2c(cnn2-c2ccc(F)cc2)c1)[C@H](C)NC(=O)C1(C)CC1` [Example 227, N-[(1R,2S)-1-[1-(4-fluorophenyl)indazol-5-yl]oxy-1-(2-methoxyphenyl)propan-2-yl]-1-methyl-cyclopropane-1-carboxamide], the IC50 was determined as 3.1 nM.

As for `COc1cccc([C@@H](Oc2ccc3c(cnn3-c3ccc(F)cc3)c2)[C@H](C)NC(=O)c2ccccn2)c1` [Example 89, N-((1R,2S)-1-(1-(4-fluorophenyl)-1H-indazol-5-yloxy)-1-(3-methoxyphenyl)propan-2-yl)picolinamide], the IC50 is 4.4 nM.

`C[C@H](NC(=O)C1(C)CC1)[C@H](Oc1ccc2c(cnn2-c2ccc(F)cc2)c1)c1ccc(Cl)cc1` [Example 222, N-[(1R,2S)-1-(4-chlorophenyl)-1-[1-(4-fluorophenyl)indazol-5-yl]oxy-propan-2-yl]-1-methyl-cyclopropane-1-carboxamide]: the IC50 is 3.5 nM.

Regarding `C[C@H](NC(=O)C(F)(F)F)[C@H](Oc1ccc2c(cnn2-c2cccc(CO)c2)c1)c1ccccc1` [Example 144, 2,2,2-trifluoro-N-((1R,2S)-1-(1-(3-(hydroxymethyl)phenyl)-1H-indazol-5-yloxy)-1-phenylpropan-2-yl)acetamide], the IC50 turned out to be 3 nM.

As to `COc1cccc([C@@H](Oc2ccc3c(cnn3-c3ccc(F)cc3)c2)[C@H](C)NC(=O)c2ccc(S(C)(=O)=O)s2)c1` [Example 273, N-[(1R,2S)-1-[1-(4-fluorophenyl)indazol-5-yl]oxy-1-(3-methoxyphenyl)propan-2-yl]-5-methylsulfonyl-thiophene-2-carboxamide], the 50% inhibitory concentration (IC50) is 7.9 nM.

For the molecule `CC(C)n1ncc2cc(O[C@H](c3ccccc3)[C@H](C)NC(=O)C(F)(F)F)ccc21` [Example 129, 2,2,2-Trifluoro-N-[(1R,2S)-1-phenyl-1-(1-propan-2-ylindazol-5-yl)oxy-propan-2-yl]acetamide], the IC50 was determined as 11 nM.

In the case of `COc1cccc([C@@H](Oc2ccc3c(cnn3-c3ccc(F)cc3)c2)[C@H](C)NC(=O)c2ccc(Br)o2)c1` [Example 276, 5-bromo-N-[(1R,2S)-1-[1-(4-fluorophenyl)indazol-5-yl]oxy-1-(3-methoxyphenyl)propan-2-yl]furan-2-carboxamide], the IC50 was determined as 12 nM.

With `C[C@H](NC(=O)C(C)(C)F)[C@H](Oc1ccc2c(cnn2-c2ccc(F)cc2)c1)c1cccc(Cl)c1` [Example 247, N-[(1R,2S)-1-(3-chlorophenyl)-1-[1-(4-fluorophenyl)indazol-5-yl]oxy-propan-2-yl]-2-fluoro-2-methyl-propanamide], the IC50 amounted to 4.4 nM.

Take `COc1cccc([C@@H](Oc2ccc3c(cnn3-c3ccc(F)cc3)c2)[C@H](C)NC(=O)c2ncc(C)s2)c1` [Example 274, N-[(1R,2S)-1-[1-(4-fluorophenyl)indazol-5-yl]oxy-1-(3-methoxyphenyl)propan-2-yl]-5-methyl-1,3-thiazole-2-carboxamide]: the IC50 worked out at 3.9 nM.

On to `COc1cccc([C@@H](Oc2ccc3c(cnn3-c3ccc(F)cc3)c2)[C@H](C)NC(=O)C2CCN(C(=O)OC(C)(C)C)C2)c1` (stereo partly drawn) [Example 301, tert-butyl 3-((1R,2S)-1-(1-(4-fluorophenyl)-1H-indazol-5-yloxy)-1-(3-methoxyphenyl)propan-2-ylcarbamoyl)pyrrolidine-1-carboxylate], for which the IC50 is 5.2 nM.

As for `COc1cccc([C@@H](Oc2ccc3c(cnn3-c3ccc(F)cc3)c2)[C@H](C)NC(=O)c2cocn2)c1` [Example 85, N-((1R,2S)-1-(1-(4-fluorophenyl)-1H-indazol-5-yloxy)-1-(3-methoxyphenyl)propan-2-yl)oxazole-4-carboxamide], the half-inhibitory concentration (IC50) turned out to be 2.1 nM.

With `Cc1cnc(C(=O)N[C@@H](C)[C@H](Oc2ccc3c(cnn3-c3ccc(F)cc3)c2)c2ccc3c(c2)OCO3)s1` [Example 210, N-[(1R,2S)-1-benzo[1,3]dioxol-5-yl-1-[1-(4-fluorophenyl)indazol-5-yl]oxy-propan-2-yl]-5-methyl-1,3-thiazole-2-carboxamide], the half-inhibitory concentration (IC50) was 5.2 nM.

On to `Cc1ccc(F)cc1[C@@H](Oc1ccc2c(cnn2-c2ccc(F)cc2)c1)[C@H](C)NC(=O)C(F)(F)F` [Example 157, 2,2,2-trifluoro-N-[(1R,2S)-1-(5-fluoro-2-methyl-phenyl)-1-[1-(4-fluorophenyl)indazol-5-yl]oxy-propan-2-yl]acetamide], for which the IC50 was determined as 5.3 nM.

Regarding `COCCOCC(=O)N[C@@H](C)[C@H](Oc1ccc2c(cnn2-c2ccc(F)cc2)c1)c1cccc(OC)c1` [Example 71, N-[(1R,2S)-1-[1-(4-Fluorophenyl)indazol-5-yl]oxy-1-(3-methoxyphenyl)propan-2-yl]-2-(2-methoxyethoxy)acetamide], the IC50 amounted to 4.6 nM.

(Values after patent publication US8143290B2, “Chemical compounds 572” (AstraZeneca AB, priority 2006, dated 2012).)
